Results taken from ChEMBL document CHEMBL2203274, “Desmethyl Macrolides: Synthesis and Evaluation of 4,8-Didesmethyl Telithromycin” (2012).

Assays:
Format in all cases: functional
[1] = tested on: Staphylococcus aureus; assay: Antibacterial activity against Staphylococcus aureus ATCC 33591 harboring ermA mutant in presence of DMSO
[2] = tested on: Staphylococcus aureus; assay: Antibacterial activity against Staphylococcus aureus UCN14 harboring ribosomal A2058T mutant in presence of DMSO
[3] = tested on: Escherichia coli; assay: Antibacterial activity against Escherichia coli DK/2058G harboring 23S rRNA A2058G mutant in presence of DMSO
[4] = tested on: Escherichia coli; assay: Antibacterial activity against wild type Escherichia coli DK/pKK3535 in presence of DMSO
[5] = tested on: Escherichia coli; assay: Antibacterial activity against Escherichia coli SQ171/2058G harboring 23S rRNA A2058G mutant in presence of DMSO
[6] = tested on: Staphylococcus aureus; assay: Antibacterial activity against Staphylococcus aureus ATCC 33591 harboring ermA mutant in presence of ethanol
[7] = tested on: Staphylococcus aureus; assay: Antibacterial activity against Staphylococcus aureus UCN14 harboring ribosomal A2058T mutant in presence of ethanol
[8] = tested on: Escherichia coli; assay: Antibacterial activity against Escherichia coli DK/2058G harboring 23S rRNA A2058G mutant in presence of ethanol
[9] = tested on: Escherichia coli; assay: Antibacterial activity against wild type Escherichia coli DK/pKK3535 in presence of ethanol
[10] = tested on: Escherichia coli; assay: Antibacterial activity against Escherichia coli SQ171/2058G harboring 23S rRNA A2058G mutant in presence of ethanol

| SMILES | MIC [1] | MIC [2] | MIC [3] | MIC [4] | MIC [5] | MIC [6] | MIC [7] | MIC [8] | MIC [9] | MIC [10] |
| --- | --- | --- | --- | --- | --- | --- | --- | --- | --- | --- |
| CC[C@H]1OC(=O)[C@H](C)C(=O)C[C@@H](O[C@@H]2O[C@H](C)C[C@H](N(C)C)[C@H]2O)[C@](C)(OC)C[C@@H](C)C(=O)C[C@H]2N(CCCCn3cnc(-c4cccnc4)c3)C(=O)O[C@]12C | > 128 mg/L | > 256 mg/L | 16 mg/L | 8 mg/L | > 512 mg/L |  |  |  |  |  |
| CC[C@H]1OC(=O)[C@H](C)C(=O)C[C@@H](O[C@@H]2O[C@H](C)C[C@H](N(C)C)[C@H]2O)[C@](C)(OC)CCC(=O)[C@H](C)[C@H]2N(CCCCn3cnc(-c4cccnc4)c3)C(=O)O[C@]12C | > 64 mg/L | > 256 mg/L | 32 mg/L | 4 mg/L | > 512 mg/L |  |  |  |  |  |
| CC[C@H]1OC(=O)[C@H](C)C(=O)C[C@@H](O[C@@H]2O[C@H](C)C[C@H](N(C)C)[C@H]2O)[C@@](C)(OC)CCC(=O)C[C@H]2[C@@H]1OC(=O)N2CCCCn1cnc(-c2cccnc2)c1 [4,8,10-TRIDESMETHYL TELITHROMYCIN] |  |  |  |  |  | > 128 mg/L | 32 mg/L | 64 mg/L | 32 mg/L | > 512 mg/L |
| CC[C@H]1OC(=O)[C@H](C)C(=O)[C@H](C)[C@@H](O[C@@H]2O[C@H](C)C[C@H](N(C)C)[C@H]2O)[C@](C)(OC)C[C@@H](C)C(=O)[C@H](C)[C@H]2N(CCCCn3cnc(-c4cccnc4)c3)C(=O)O[C@]12C [TELITHROMYCIN] | > 128 mg/L | > 128 mg/L | 1 mg/L | 0.5 mg/L | > 512 mg/L | > 128 mg/L | > 256 mg/L | 1 mg/L | 0.5 mg/L | > 512 mg/L |
